Source: PubChem BioAssay AID1918999 (Molecular Pharmacology Branch, DTP, NCI, 2023)
“And” between values parts separate entries of the source, which are not always exact repeats. Equal values may be shown once.

Test system: 556581-035-R-J1-PDC complex spheroid growth
Assay: Anticancer human tumor 556581-035-R-J1-PDC patient-derived ovarian carcinoma cell line growth inhibition [AhR]
Details: for viability, T/C: stronger effect = lower value
How it was run: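 Spheroids combined tumor cells with HUVEC endothelial cells and human MSCs as stroma. AhR antagonists were paired with standard or investigational drugs, each dosed in half-log steps down from near clinical Cmax, or from 10 microM where Cmax was unknown.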

[1] = curve of first compound, second compound 0.1 µM
[2] = curve of first compound, second compound 0.316 µM
[3] = curve of first compound, second compound 1 µM
[4] = curve of first compound, second compound 3.16 µM
[5] = curve of first compound, second compound 10 µM
[6] = second compound 0.1 µM, first compound 0.0316 µM
[7] = second compound 0.1 µM, first compound 0.1 µM
[8] = second compound 0.1 µM, first compound 0.316 µM
[9] = second compound 0.1 µM, first compound 1 µM
[10] = second compound 0.316 µM, first compound 0.0316 µM
[11] = second compound 0.316 µM, first compound 0.1 µM
[12] = second compound 0.316 µM, first compound 0.316 µM
[13] = second compound 0.316 µM, first compound 1 µM
[14] = second compound 1 µM, first compound 0.0316 µM
[15] = second compound 1 µM, first compound 0.1 µM
[16] = second compound 1 µM, first compound 0.316 µM
[17] = second compound 1 µM, first compound 1 µM
[18] = second compound 3.16 µM, first compound 0.0316 µM
[19] = second compound 3.16 µM, first compound 0.1 µM
[20] = second compound 3.16 µM, first compound 0.316 µM
[21] = second compound 3.16 µM, first compound 1 µM
[22] = second compound 10 µM, first compound 0.0316 µM
[23] = second compound 10 µM, first compound 0.1 µM
[24] = second compound 10 µM, first compound 0.316 µM
[25] = second compound 10 µM, first compound 1 µM
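For viability, T/C in this document: compound exposure lasted 7 days; 100% = DMSO vehicle control growth.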

| IC50 [1] [nM] | IC50 [2] [nM] | IC50 [3] [nM] | IC50 [4] [nM] | IC50 [5] [nM] | Compound | viability, T/C [6] [%] | viability, T/C [7] [%] | viability, T/C [8] [%] | viability, T/C [9] [%] | viability, T/C [10] [%] | viability, T/C [11] [%] | viability, T/C [12] [%] | viability, T/C [13] [%] | viability, T/C [14] [%] | viability, T/C [15] [%] | viability, T/C [16] [%] | viability, T/C [17] [%] | viability, T/C [18] [%] | viability, T/C [19] [%] | viability, T/C [20] [%] | other results |
| --- | --- | --- | --- | --- | --- | --- | --- | --- | --- | --- | --- | --- | --- | --- | --- | --- | --- | --- | --- | --- | --- |
| 474 | 690 | 944 | 398 | 295 | CC1COCCN1c1cc(-c2ccnn2C)c2ccnc(-c3ccn[nH]3)c2n1 (configuration not stated) + CC(CO)NC(=O)c1cc(-c2ccc(Cl)cc2)nn(-c2cnn(C)c2)c1=O | 108 | 79.7 | 52.4 | 47.1 | 104 | 89.3 | 56.3 | 47 | 106 | 84.4 | 64.6 | 48.5 | 114 | 80.7 | 53.6 | viability, T/C (second compound 0.1 µM, first compound 0.00316 µM): 106%; viability, T/C (second compound 0.1 µM, first compound 0.01 µM): 109%; viability, T/C (second compound 0.316 µM, first compound 0.00316 µM): 107%; viability, T/C (second compound 0.316 µM, first compound 0.01 µM): 114%; viability, T/C (second compound 1 µM, first compound 0.00316 µM): 118%; viability, T/C (second compound 1 µM, first compound 0.01 µM): 120%; viability, T/C (second compound 3.16 µM, first compound 0.00316 µM): 114%; viability, T/C (second compound 3.16 µM, first compound 0.01 µM): 130%; viability, T/C [21]: 43.2%; viability, T/C (second compound 10 µM, first compound 0.00316 µM): 107%; viability, T/C (second compound 10 µM, first compound 0.01 µM): 119%; viability, T/C [22]: 103%; viability, T/C [23]: 68.6%; viability, T/C [24]: 50.5%; viability, T/C [25]: 44.8% |
| – | – | – | – | – | CC1COCCN1c1cc(-c2ccnn2C)c2ccnc(-c3ccn[nH]3)c2n1 (configuration not stated) | – | – | – | – | – | – | – | – | – | – | – | – | – | – | – | viability, T/C (compound 0.00316 µM): 97.2% and 110% and 109%; viability, T/C (compound 0.01 µM): 101% and 105% and 102%; viability, T/C (compound 0.0316 µM): 105% and 95.4% and 98.4%; viability, T/C (compound 0.1 µM): 78.3% and 80.3% and 80.1%; viability, T/C (compound 0.316 µM): 58.9% (2×) and 65.4%; viability, T/C (compound 1 µM): 45.2% and 48.2% and 48.4%; IC50 (curve of compound): 670 nM and 897 nM and 827 nM |
| > 10000 | > 10000 | > 10000 | > 10000 | > 10000 | COc1cc(Nc2ncc3c(n2)-c2ccc(Cl)cc2C(c2c(F)cccc2OC)=NC3)ccc1C(=O)O + CC(CO)NC(=O)c1cc(-c2ccc(Cl)cc2)nn(-c2cnn(C)c2)c1=O | 86 | 70.6 | 66 | 66.5 | 88.8 | 73.4 | 59 | 62.2 | 95.7 | 69.3 | 73.4 | 64.9 | 79.9 | 71.2 | 70.2 | viability, T/C (second compound 0.1 µM, first compound 3.16 µM): 61.3%; viability, T/C (second compound 0.1 µM, first compound 10 µM): 52.6%; viability, T/C (second compound 0.316 µM, first compound 3.16 µM): 55.2%; viability, T/C (second compound 0.316 µM, first compound 10 µM): 49.4%; viability, T/C (second compound 1 µM, first compound 3.16 µM): 55.8%; viability, T/C (second compound 1 µM, first compound 10 µM): 49.5%; viability, T/C [21]: 65.7%; viability, T/C (second compound 3.16 µM, first compound 3.16 µM): 54%; viability, T/C (second compound 3.16 µM, first compound 10 µM): 60.9%; viability, T/C [22]: 88.5%; viability, T/C [23]: 80.8%; viability, T/C [24]: 66%; viability, T/C [25]: 71.3%; viability, T/C (second compound 10 µM, first compound 3.16 µM): 56.7%; viability, T/C (second compound 10 µM, first compound 10 µM): 55.1% |
